Measurements: patent US12552792B2, “Solid forms of an FGFR inhibitor and processes for preparing the same” (Incyte Corporation, priority 2018, dated 2026)
Values after ≈ are worked out from the molar mass of the structure shown. Read-outs that look alike come from different tables or passages of the source.

Assays:
Assay type in all cases: physicochemical
[1] = Solubility measurement of Form I in solvent systems (HPLC); settings: organic solvent or mixture, thermodynamic from solid
Procedure: Form I waw found to be completely soluble (>50 mg/mL) in many solvents including DMF (50° C.), DCM, chloroform, DMSO, and DCM/MeOH (9/1) at 25° C. and 50° C.

[2] = as above; settings: for solubility at 24 h: organic solvent or mixture, thermodynamic from solid, stirred 24 h, HPLC; for solubility (in words): 25° C.
[3] = Conversion of Form II to Form I in different solvents
Excerpt: The Form II was converted to Form I in acetonitrile, ethanol and IPA respectively as described in Table 13.

## CCN1C(=O)N(c2c(F)c(OC)cc(OC)c2F)Cc2cnc3[nH]c(CN4CCOCC4)cc3c21 [Form III]
[1]; 50 °C, solvent 1,4-Dioxane, stirred 24 h, HPLC, read-out: Solubility at 50° C.
  solubility at 24 h: 5690 µg/mL (≈ 11.7 mM)
[2]; 25 °C, solvent 1,4-Dioxane, read-out: Solubility at 25° C.
  solubility at 24 h: 2230 µg/mL (≈ 4.57 mM)

## CCN1C(=O)N(c2c(F)c(OC)cc(OC)c2F)Cc2cnc3[nH]c(CN4CCOCC4)cc3c21 [Form II]
[3]; 18 mg Form II in EtOH (0.7 mL)
  Conversion result (solid form): Form I
[3]; 18 mg Form II in IPA (0.7 mL)
  Conversion result (solid form): Form I
[3]; 18 mg Form II in MeCN (0.7 mL)
  Conversion result (solid form): Form I
[2]; 25 °C, solvent Dichloromethane, read-out: Solubility at 25° C.
  solubility at 24 h: > 50000 µg/mL

## CCN1C(=O)N(c2c(F)c(OC)cc(OC)c2F)Cc2cnc3[nH]c(CN4CCOCC4)cc3c21 [Form IX]
[1]; 25 °C, solvent MTBE, stirred 24 h, HPLC, read-out: Solubility at 25° C.
  solubility at 24 h: 50 µg/mL (≈ 0.103 mM)

## CCN1C(=O)N(c2c(F)c(OC)cc(OC)c2F)Cc2cnc3[nH]c(CN4CCOCC4)cc3c21 [Form I]
[1]; 25 °C, solvent 1-Propanol, stirred 24 h, HPLC, read-out: Solubility at 25° C.
  solubility at 24 h: 1160 µg/mL (≈ 2.38 mM)
[1]; 25 °C, solvent DCM/MeOH (9/1), stirred 24 h, HPLC, read-out: Solubility at 25° C.
  solubility at 24 h: > 50000 µg/mL
[1]; 25 °C, solvent IPAc, stirred 24 h, HPLC, read-out: Solubility at 25° C.
  solubility at 24 h: 880 µg/mL (≈ 1.81 mM)
[1]; 25 °C, solvent Toluene, stirred 24 h, HPLC, read-out: Solubility at 25° C.
  solubility at 24 h: 450 µg/mL (≈ 0.923 mM)
[1]; 50 °C, solvent 1-Propanol, stirred 24 h, HPLC, read-out: Solubility at 50° C.
  solubility at 24 h: 2500 µg/mL (≈ 5.13 mM)
[1]; 50 °C, solvent Chloroform, stirred 24 h, HPLC, read-out: Solubility at 50° C.
  solubility at 24 h: > 50000 µg/mL
[1]; 50 °C, solvent Dichloromethane, stirred 24 h, HPLC, read-out: Solubility at 50° C.
  solubility at 24 h: > 50000 µg/mL
[1]; 50 °C, solvent EtOAc, stirred 24 h, HPLC, read-out: Solubility at 50° C.
  solubility at 24 h: 2260 µg/mL (≈ 4.64 mM)
[1]; 50 °C, solvent MeCN, stirred 24 h, HPLC, read-out: Solubility at 50° C.
  solubility at 24 h: 8390 µg/mL (≈ 17.2 mM)
[1]; 50 °C, solvent Methanol, stirred 24 h, HPLC, read-out: Solubility at 50° C.
  solubility at 24 h: 2050 µg/mL (≈ 4.21 mM)
[1]; DMF (50° C.), DCM, chloroform, DMSO, DCM/MeOH (9/1) at 25° C. and 50° C., read-out: completely soluble
  solubility at 24 h: > 50000 µg/mL
[1]; DMSO, 25° C., slurry obtained after stirring the clear solution of 60 mg Form I in 1 mL DMSO, read-out: solubility of the saturated solution
  solubility: 6130 µg/mL (≈ 12.6 mM)
[2]; 25 °C, solvent 2-Methoxyethanol, read-out: Solubility at 25° C.
  solubility at 24 h: 15300 µg/mL (≈ 31.3 mM)
[2]; 25 °C, solvent Chloroform, read-out: Solubility at 25° C.
  solubility at 24 h: > 50000 µg/mL
[2]; 25 °C, solvent DMF, read-out: Solubility at 25° C.
  solubility at 24 h: 42000 µg/mL (≈ 86.1 mM)
[2]; 25 °C, solvent DMSO, read-out: Solubility at 25° C.
  solubility at 24 h: > 50000 µg/mL
[2]; 25 °C, solvent EtOH, read-out: Solubility at 25° C.
  solubility at 24 h: 970 µg/mL (≈ 1.99 mM)
[2]; 25 °C, solvent IPA/water (4/1), read-out: Solubility at 25° C.
  solubility at 24 h: 5350 µg/mL (≈ 11 mM)
[2]; 25 °C, solvent IPA, read-out: Solubility at 25° C.
  solubility at 24 h: 560 µg/mL (≈ 1.15 mM)
[2]; 25 °C, solvent Isobutyl acetate, read-out: Solubility at 25° C.
  solubility at 24 h: 460 µg/mL (≈ 0.944 mM)
[2]; 25 °C, solvent MEK, read-out: Solubility at 25° C.
  solubility at 24 h: 1200 µg/mL (≈ 2.46 mM)
[2]; 25 °C, solvent MeCN, read-out: Solubility at 25° C.
  solubility at 24 h: 5390 µg/mL (≈ 11.1 mM)
[2]; 25 °C, solvent THF, read-out: Solubility at 25° C.
  solubility at 24 h: 4110 µg/mL (≈ 8.43 mM)
[2]; 25 °C, solvent n-BuOH, read-out: Solubility at 25° C.
  solubility at 24 h: 820 µg/mL (≈ 1.68 mM)
[2]; 50 °C, solvent 2-Methoxyethanol, read-out: Solubility at 50° C.
  solubility at 24 h: 20500 µg/mL (≈ 42 mM)
[2]; 50 °C, solvent Acetone, read-out: Solubility at 50° C.
  solubility at 24 h: 6670 µg/mL (≈ 13.7 mM)
[2]; 50 °C, solvent DCM/MeOH (9/1), read-out: Solubility at 50° C.
  solubility at 24 h: > 50000 µg/mL
[2]; 50 °C, solvent DMF, read-out: Solubility at 50° C.
  solubility at 24 h: > 50000 µg/mL
[2]; 50 °C, solvent DMSO, read-out: Solubility at 50° C.
  solubility at 24 h: > 50000 µg/mL
[2]; 50 °C, solvent EtOH, read-out: Solubility at 50° C.
  solubility at 24 h: 2730 µg/mL (≈ 5.6 mM)
[2]; 50 °C, solvent Ethyl formate, read-out: Solubility at 50° C.
  solubility at 24 h: 15300 µg/mL (≈ 31.4 mM)
[2]; 50 °C, solvent IPA/water (4/1), read-out: Solubility at 50° C.
  solubility at 24 h: 8770 µg/mL (≈ 18 mM)
[2]; 50 °C, solvent IPA, read-out: Solubility at 50° C.
  solubility at 24 h: 1370 µg/mL (≈ 2.81 mM)
[2]; 50 °C, solvent IPAc, read-out: Solubility at 50° C.
  solubility at 24 h: 1330 µg/mL (≈ 2.73 mM)
[2]; 50 °C, solvent Isobutyl acetate, read-out: Solubility at 50° C.
  solubility at 24 h: 580 µg/mL (≈ 1.19 mM)
[2]; 50 °C, solvent MEK, read-out: Solubility at 50° C.
  solubility at 24 h: 3220 µg/mL (≈ 6.61 mM)
[2]; 50 °C, solvent MIBK, read-out: Solubility at 50° C.
  solubility at 24 h: 1120 µg/mL (≈ 2.3 mM)
[2]; 50 °C, solvent MTBE, read-out: Solubility at 50° C.
  solubility at 24 h: 190 µg/mL (≈ 0.39 mM)
[2]; 50 °C, solvent Toluene, read-out: Solubility at 50° C.
  solubility at 24 h: 820 µg/mL (≈ 1.68 mM)
[2]; 50 °C, solvent n-BuOH, read-out: Solubility at 50° C.
  solubility at 24 h: 1650 µg/mL (≈ 3.38 mM)
[2]; MTBE, toluene, IPAc, methanol, and IPA
  solubility (in words): sparingly soluble
[2]; water, heptane and hexane
  solubility (in words): almost insoluble

## CCN1C(=O)N(c2c(F)c(OC)cc(OC)c2F)Cc2cnc3[nH]c(CN4CCOCC4)cc3c21 [Form VIII]
[1]; 25 °C, solvent Acetone, stirred 24 h, HPLC, read-out: Solubility at 25° C.
  solubility at 24 h: 2680 µg/mL (≈ 5.5 mM)

## CCN1C(=O)N(c2c(F)c(OC)cc(OC)c2F)Cc2cnc3[nH]c(CN4CCOCC4)cc3c21 [Form VII]
[1]; 25 °C, solvent MIBK, stirred 24 h, HPLC, read-out: Solubility at 25° C.
  solubility at 24 h: 430 µg/mL (≈ 0.882 mM)

## CCN1C(=O)N(c2c(F)c(OC)cc(OC)c2F)Cc2cnc3[nH]c(CN4CCOCC4)cc3c21 [Form VI]
[2]; 25 °C, solvent Methanol, read-out: Solubility at 25° C.
  solubility at 24 h: 640 µg/mL (≈ 1.31 mM)

## CCN1C(=O)N(c2c(F)c(OC)cc(OC)c2F)Cc2cnc3[nH]c(CN4CCOCC4)cc3c21 [Form XIII]
[2]; 50 °C, solvent THF, read-out: Solubility at 50° C.
  solubility at 24 h: 10000 µg/mL (≈ 20.6 mM)

## CCN1C(=O)N(c2c(F)c(OC)cc(OC)c2F)Cc2cnc3[nH]c(CN4CCOCC4)cc3c21 [Form XI]
[1]; 25 °C, solvent Ethyl formate, stirred 24 h, HPLC, read-out: Solubility at 25° C.
  solubility at 24 h: 4160 µg/mL (≈ 8.53 mM)

## CCN1C(=O)N(c2c(F)c(OC)cc(OC)c2F)Cc2cnc3[nH]c(CN4CCOCC4)cc3c21 [Form X]
[2]; 25 °C, solvent EtOAc, read-out: Solubility at 25° C.
  solubility at 24 h: 700 µg/mL (≈ 1.44 mM)
